For 1 molecule, IC50 results are on record in publication PMC11574108, “4-Furanylvinylquinoline derivative as a new scaffold for the design of oxidative stress initiator and glucose transporter inhibitor drugs” (Scientific Reports, 2024).

Read-outs that look alike come from different tables or passages of the source.

The test relates to HCT 116 p53+/+ spheroids. The experiment in a line: 3D spheroid cell viability assay. In kind it is cell-based, human. The settings on record: 3D spheroids, CellTiter-Glo 3D, 72-h treatment, read-out: IC50 HCT 116 p53+/+ (3D model). On the procedure: The HCT 116 cell lines, AsPC-1, PANC-1 (5,000), and U-251 cells (8,000) in 100 µL of medium were seeded in 96-well ULA Corning spheroid microplates (Sigma-Aldrich) and incubated for 72 h at 37 °C to form spheroids. The medium from each well was then gently removed and freshly prepared solutions of 13 were added. The treated spheroids were incubated for the next 72-h. Afterward, cell viability assays were performed using CellTiter-Glo 3D Reagent (Promega) according to the manufacturer’s protocol. Briefly, CellTiter-Glo 3D Reagent was added in equal volume to the medium in each well. The plate was vigorously mixed for 5 min and then incubated for 25 min at room temperature. The luminescence was measured using a multiplate reader (Synergy 4, BioTek). The experiment for each sample was performed at least three times. The results from the assay are presented as IC50 values, which were calculated using GraphPad Prism v.8.0 (USA).
To confirm the cytotoxicity ranking, the viability of the cells was also estimated on a 3D spheroid model, which better represented a solid tumour. […] The cell lines that represented pancreatic cancer were less responsive to derivative 13, which was similar to the 2D model. […]
A general note: In ATP-based viability assays light output follows the ATP content of the culture.

Regarding `O=[N+]([O-])c1ccc(/C=C/c2ccnc3ccccc23)o1` [Compound 13], the IC50 stood at 1.16 ± 0.19 µM. Also, where the note is “Homo sapiens, HCT-116, 72 h”, the IC50 was roughly 1 µM.
